Data as given in patent US20230165980A1, “METHODS FOR RADIOLABELING PSMA BINDING LIGANDS AND THEIR KITS” (Novartis AG, priority 2020, published 2023).

Test: Radiochemical purity and radiochemical stability of ^68GaPSMA-11 by HPLC
Format: physicochemical
Details: for [^68Ga] Gallium PSMA-11 (sum of stereosiomers), HPLC / [^68Ga] Gallium free, HPLC / [^68Ga] Gallium main degradant, HPLC: t0 h
Description: Radiochemical Purity and Identification of ^68GaPSMA-11 by HPLC
Chromatographic Conditions
Radical Scavenger to be used for the improvement of the radiochemical stability of ^68Ga-PSMA-11, tests were performed according to a varied approach in order to consider all the parameters that may affect the radiochemical purity of the product (activity, pH, volume, amount of Gentisic Acid).
Stability tests were performed on the freeze dried product containing the final formulation. […] Kits manufactured with the final formulation, indeed, were stored at different stability conditions (2-8° C.; 25° C. and 40° C.) and were tested at different time points for API-assay, Radiochemical Purity and Radiochemical Stability of the radiolabelled product. Radiochemical Purity and Stability were assessed only eluting IRE Generator which represented the most stressful condition in terms of Radioactive Concentration (Volumic Activity).

[1] = Gentisic Acid 0 μg, IRE 17.19 mCi, 1 mL, pH 5.24
[2] = Gentisic Acid 200 μg, IRE 17.85 mCi, 1 mL, pH 5.22
[3] = Gentisic Acid 200 μg, IRE 18.07 mCi, 1 mL, pH 5.25
[4] = Gentisic Acid 200 μg, ITG 35.92 mCi, 4 mL, pH 4.83
[5] = Gentisic Acid 400 μg, IRE 17.44 mCi, 1 mL, pH 5.13
[6] = Gentisic Acid 400 μg, IRE 17.79 mCi, 1 mL, pH 5.11
[7] = Gentisic Acid 400 μg, ITG 16.9 mCi, 4 mL, pH 4.85
[8] = Gentisic Acid 400 μg, ITG 31.97 mCi, 4 mL, pH 4.81
[9] = Gentisic Acid 1000 μg, E&Z 15.65 mCi, 5 mL, pH 3.75
[10] = Gentisic Acid 1000 μg, IRE 17.1 mCi, 1 mL, pH 5.08
[11] = Gentisic Acid 1000 μg, ITG 30.9 mCi, 4 mL, pH 4.87
[12] = final formulation kit at Release, E&Z 15.65 mCi, 5 mL, pH 3.75
[13] = final formulation kit at Release, E&Z 16.80 mCi, 5 mL, pH 3.75
[14] = final formulation kit at Release, IRE 32.27 mCi, 1 mL, pH 4.95
[15] = final formulation kit at Release, IRE 32.95 mCi, 1 mL, pH 5.07
[16] = final formulation kit at Release, ITG 29.74 mCi, 4 mL, pH 4.67
[17] = final formulation kit at Release, ITG 30.90 mCi, 4 mL, pH 4.67
[18] = kit stored 3 months at 2-8° C., IRE 25.76 mCi, 1 mL, pH 5.29
[19] = kit stored 3 months at 25° C., IRE 24.56 mCi, 1 mL, pH 5.16
[20] = kit stored 3 months at 40° C., IRE 24.86 mCi, 1 mL, pH 5.23
[21] = kit stored 6 months at 2-8° C., IRE 19.90 mCi, 1 mL, pH 5.13
[22] = kit stored 6 months at 25° C., IRE 18.88 mCi, 1 mL, pH 5.09
[23] = kit stored 6 months at 40° C., IRE 19.34 mCi, 1 mL, pH 5.15

## ^68Ga-PSMA-11 [[^68Ga] Gallium PSMA-11]
400 μg Gentisic Acid
  time for which the radiolabelled product is stable with high radiochemical purity: up to 4 hours
[1]
  [^68Ga] Gallium PSMA-11 (sum of stereosiomers), HPLC: 92.71%
  [^68Ga] Gallium free, HPLC: 0.15%
  [^68Ga] Gallium main degradant, HPLC: 6.61%
[2]
  [^68Ga] Gallium PSMA-11 (sum of stereosiomers), HPLC: 97.76%
  [^68Ga] Gallium free, HPLC: 0.00%
  [^68Ga] Gallium main degradant, HPLC: 1.83%
[3]
  [^68Ga] Gallium PSMA-11 (sum of stereosiomers), HPLC: 98.46%
  [^68Ga] Gallium free, HPLC: 0.00%
  [^68Ga] Gallium main degradant, HPLC: 1.21%
[4]
  [^68Ga] Gallium PSMA-11 (sum of stereosiomers), HPLC: 99.56%
  [^68Ga] Gallium free, HPLC: 0.00%
  [^68Ga] Gallium main degradant, HPLC: 0.19%
[5]
  [^68Ga] Gallium PSMA-11 (sum of stereosiomers), HPLC: 99.29%
  [^68Ga] Gallium free, HPLC: 0.00%
  [^68Ga] Gallium main degradant, HPLC: 0.71%
[6]
  [^68Ga] Gallium PSMA-11 (sum of stereosiomers), HPLC: 98.88%
  [^68Ga] Gallium free, HPLC: 0.12%
  [^68Ga] Gallium main degradant, HPLC: 1.00%
[7]
  [^68Ga] Gallium PSMA-11 (sum of stereosiomers), HPLC: 99.16%
  [^68Ga] Gallium free, HPLC: 0.08%
  [^68Ga] Gallium main degradant, HPLC: 0.19%
[8]
  [^68Ga] Gallium PSMA-11 (sum of stereosiomers), HPLC: 99.35%
  [^68Ga] Gallium free, HPLC: 0.00%
  [^68Ga] Gallium main degradant, HPLC: 0.16%
[9]
  [^68Ga] Gallium PSMA-11 (sum of stereosiomers), HPLC: 99.87%
  [^68Ga] Gallium free, HPLC: 0.00%
  [^68Ga] Gallium main degradant, HPLC: 0.00%
[10]
  [^68Ga] Gallium PSMA-11 (sum of stereosiomers), HPLC: 99.67%
  [^68Ga] Gallium free, HPLC: 0.00%
  [^68Ga] Gallium main degradant, HPLC: 0.33%
[11]
  [^68Ga] Gallium PSMA-11 (sum of stereosiomers), HPLC: 99.80%
  [^68Ga] Gallium free, HPLC: 0.01%
  [^68Ga] Gallium main degradant, HPLC: 0.02%
[12]
  [^68Ga] Gallium PSMA-11 (sum of stereosiomers), HPLC: 99.87%
  [^68Ga] Gallium free, HPLC: 0.00%
  [^68Ga] Gallium main degradant, HPLC: 0.00%
[13]
  [^68Ga] Gallium PSMA-11 (sum of stereosiomers), HPLC: 99.68%
  [^68Ga] Gallium free, HPLC: 0.00%
  [^68Ga] Gallium main degradant, HPLC: 0.19%
[14]
  [^68Ga] Gallium PSMA-11 (sum of stereosiomers), HPLC: 99.58%
  [^68Ga] Gallium free, HPLC: 0.00%
  [^68Ga] Gallium main degradant, HPLC: 0.00%
[15]
  [^68Ga] Gallium PSMA-11 (sum of stereosiomers), HPLC: 99.66%
  [^68Ga] Gallium free, HPLC: 0.00%
  [^68Ga] Gallium main degradant, HPLC: 0.23%
[16]
  [^68Ga] Gallium PSMA-11 (sum of stereosiomers), HPLC: 99.81%
  [^68Ga] Gallium free, HPLC: 0.00%
  [^68Ga] Gallium main degradant, HPLC: 0.05%
[17]
  [^68Ga] Gallium PSMA-11 (sum of stereosiomers), HPLC: 98.80%
  [^68Ga] Gallium free, HPLC: 0.01%
  [^68Ga] Gallium main degradant, HPLC: 0.02%
[18]
  [^68Ga] Gallium PSMA-11 (sum of stereosiomers), HPLC: 99.28%
  [^68Ga] Gallium free, HPLC: 0.04%
  [^68Ga] Gallium main degradant, HPLC: 0.55%
[19]
  [^68Ga] Gallium PSMA-11 (sum of stereosiomers), HPLC: 99.22%
  [^68Ga] Gallium free, HPLC: 0.05%
  [^68Ga] Gallium main degradant, HPLC: 0.19%
[20]
  [^68Ga] Gallium PSMA-11 (sum of stereosiomers), HPLC: 98.92%
  [^68Ga] Gallium free, HPLC: 0.07%
  [^68Ga] Gallium main degradant, HPLC: 0.26%
[21]
  [^68Ga] Gallium PSMA-11 (sum of stereosiomers), HPLC: 99.40%
  [^68Ga] Gallium free, HPLC: 0.00%
  [^68Ga] Gallium main degradant, HPLC: 0.47%
[22]
  [^68Ga] Gallium PSMA-11 (sum of stereosiomers), HPLC: 99.32%
  [^68Ga] Gallium free, HPLC: 0.00%
  [^68Ga] Gallium main degradant, HPLC: 0.42%
[23]
  [^68Ga] Gallium PSMA-11 (sum of stereosiomers), HPLC: 99.21%
  [^68Ga] Gallium free, HPLC: 0.04%
